Test results as given in ChEMBL document CHEMBL3392985, “Dithiocarbamate-thiourea hybrids useful as vaginal microbicides also show reverse transcriptase inhibition: design, synthesis, docking and pharmacokinetic studies” (Bioorg Med Chem Lett, 2015).
Converted amounts (≈) assume the structure as drawn.

Legend:
HeLa = assay: Cytotoxicity against human HeLa cells assessed as cell viability at 200 ug/ml after 24 hrs by lactate dehydrogenase release assay; type: cell-based
[1] = target: Human immunodeficiency virus type 1 reverse transcriptase (Human immunodeficiency virus 1) (UniProt Q72547); assay: Inhibition of HIV-1 reverse transcriptase using digoxigenin/biotin-labeled dUTP as substrate at 100 ug/ml incubated for 1 hr followed by compound washout measured after 1 hr by non-radioactive ELISA relative to control
[2] = Spermicidal activity against human sperm by microscopic analysis; type: functional
Trichomonas vaginalis = assay: Antimicrobial activity against Trichomonas vaginalis after 3 to 48 hrs by trypan blue exclusion assay; type: functional
[3] = Toxicity against Lactobacillus acidophilus at 200 ug/ml after 24 hrs
[4] = Terminal half life in rabbit administered intravaginally after 1 hr; type: ADME, organism-based, Oryctolagus cuniculus; conditions: in vivo, read-out: beta t1/2 (converted)
[5] = Cmax in rabbit administered administered intravaginally after 1 hr; type: ADME, organism-based, Oryctolagus cuniculus; conditions: in vivo
Homo sapiens = species on record: Homo sapiens; assay: Ratio of nonoxynol-9 MEC to compound MEC for human sperm; type: functional
[6] = Stability of the compound in simulated vaginal fluid at 100 ng/ml at pH 2 up to 1 hr by LC/MS/MS analysis; type: ADME; conditions: buffer, pH 2, 1 h

Structure (SMILES)	Activity (HeLa)	inhibition [1] [%]	MEC [2] [%]	MIC (Trichomonas vaginalis) [µg/mL]	Activity [3]	half-life [4] [min]	Cmax [5] [ng/mL]	Ratio (Homo sapiens)	Stability [6]
CCCCCCSC(=S)N1CCN(C(=S)Nc2cccnc2)CC1	Non-toxic	26.1	0.05	125 (≈ 327 µM)	Non-toxic	–	–	–	–
CCCCSC(=S)N1CCN(C(=S)NC(=O)c2ccccc2)CC1	–	27.8	1	125 (≈ 328 µM)	–	–	–	–	–
CCCSC(=S)N1CCN(C(=S)NCc2ccccc2)CC1	–	20.6	1	15.6 (≈ 44 µM)	–	–	–	–	–
CCCSC(=S)N1CCN(C(=S)Nc2ccccc2)CC1	–	21.5	>2	500 (≈ 1470 µM)	–	–	–	–	–
S=C(Nc1ccccc1)N1CCN(C(=S)SCc2ccccc2)CC1	–	21.9	>2	250 (≈ 645 µM)	–	–	–	–	–
CCCCCCCCCc1ccc(OCCOCCOCCOCCOCCOCCOCCOCCOCCO)cc1 [NONOXYNOL 9]	–	–	0.05	20 (≈ 32.4 µM)	–	87	4.87	–	–
CCCSC(=S)N1CCN(C(=S)NCCc2ccccc2)CC1	–	28.4	>2	250 (≈ 680 µM)	–	–	–	–	–
CCCCCCSC(=S)N1CCN(C(=S)NC(=O)c2ccccc2)CC1	Non-toxic	23.2	0.05	7.78 (≈ 19 µM)	Non-toxic	–	–	–	–
CCCCCCSC(=S)N1CCN(C(=S)NCCc2ccccc2)CC1	–	14.8	1	250 (≈ 610 µM)	–	–	–	–	–
CCCCCCCCSC(=S)N1CCN(C(=S)Nc2ccccc2)CC1	–	24	1	125 (≈ 305 µM)	–	–	–	–	–
CCCCSC(=S)N1CCN(C(=S)Nc2ccccc2)CC1	–	30.9	>2	125 (≈ 354 µM)	–	–	–	–	–
S=C(Nc1cccnc1)N1CCN(C(=S)SCc2ccccc2)CC1	–	25.8	2	> 500	–	–	–	–	–
CCCCCCCCSC(=S)N1CCN(C(=S)NC(=O)c2ccccc2)CC1	Non-toxic	41.3	0.025	15.6 (≈ 35.5 µM)	Non-toxic	–	–	2	Stable
CCCCSC(=S)N1CCN(C(=S)Nc2cccnc2)CC1	–	14.9	>2	250 (≈ 705 µM)	–	–	–	–	–
CCCCCCCCSC(=S)N1CCN(C(=S)NCc2ccccc2)CC1	–	36.5	1	250 (≈ 590 µM)	–	–	–	–	–
CCCSC(=S)N1CCN(C(=S)Nc2cccnc2)CC1	–	35.4	0.5	125 (≈ 367 µM)	–	–	–	–	–
CCCCCCCCSC(=S)N1CCN(C(=S)NCCc2ccccc2)CC1	–	15.7	>2	250 (≈ 571 µM)	–	–	–	–	–
S=C(NCCc1ccccc1)N1CCN(C(=S)SCc2ccccc2)CC1	–	11.8	>2	62.5 (≈ 150 µM)	–	–	–	–	–
CCCSC(=S)N1CCN(C(=S)NC(=O)c2ccccc2)CC1	Non-toxic	31.4	0.025	62.5 (≈ 170 µM)	Non-toxic	–	–	2	–
CCCCSC(=S)N1CCN(C(=S)NCCc2ccccc2)CC1	–	13.5	>2	250 (≈ 655 µM)	–	–	–	–	–
O=C(NC(=S)N1CCN(C(=S)SCc2ccccc2)CC1)c1ccccc1	–	12.3	1	62.5 (≈ 150 µM)	–	–	–	–	–
CCCCCCSC(=S)N1CCN(C(=S)Nc2ccccc2)CC1	–	1.9	>2	> 500	–	–	–	–	–
CCCCSC(=S)N1CCN(C(=S)NCc2ccccc2)CC1	–	14.2	>2	500 (≈ 1360 µM)	–	–	–	–	–
CCCCCCCCSC(=S)N1CCN(C(=S)Nc2cccnc2)CC1	–	44.7	2	62.5 (≈ 152 µM)	–	–	–	–	–
CCCCCCSC(=S)N1CCN(C(=S)NCc2ccccc2)CC1	–	27.3	>2	250 (≈ 632 µM)	–	–	–	–	–
S=C(NCc1ccccc1)N1CCN(C(=S)SCc2ccccc2)CC1	–	9.11	>2	125 (≈ 311 µM)	–	–	–	–	–
